Results published in patent publication US8192962B2, “Processes for detecting toxic substances” (Daikin Industries, Ltd., priority 2001, dated 2012).

System: Stress protein genes
Assay: DNA chip mRNA expression in yeast, stress protein genes (Table 6)
Assay type: cell-based, Saccharomyces cerevisiae S288C
Outline: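 S. cerevisiae S288C grown at 25° C. in YPD to log phase, then exposed 2 h to a toxicant at a growth-inhibiting, non-lethal concentration; untreated cells as control. Poly(A) mRNA reverse-transcribed with Cy3-dUTP or Cy5-dUTP, hybridized >12 h at 65° C. to whole-genome yeast DNA chip; value = fluorescence ratio treated/untreated.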

COc1cc(CNC(=O)CCCCC=CC(C)C)ccc1O [(12), 8-methyl-N-vanillyl-6-nonenamide]
The level of expressed mRNA in the presence of chemical substance/The level of expressed mRNA in the absence of chemical substance (yeast gene YAL005C): 1.2 | The level of expressed mRNA in the presence of chemical substance/The level of expressed mRNA in the absence of chemical substance (yeast gene YAL015C): 1.0 | The level of expressed mRNA in the presence of chemical substance/The level of expressed mRNA in the absence of chemical substance (yeast gene YBL075C): 1.1 | The level of expressed mRNA in the presence of chemical substance/The level of expressed mRNA in the absence of chemical substance (yeast gene YBL093C): 1.1 | The level of expressed mRNA in the presence of chemical substance/The level of expressed mRNA in the absence of chemical substance (yeast gene YBR044C): 0.8 | The level of expressed mRNA in the presence of chemical substance/The level of expressed mRNA in the absence of chemical substance (yeast gene YBR054W): 0.7 | The level of expressed mRNA in the presence of chemical substance/The level of expressed mRNA in the absence of chemical substance (yeast gene YBR067C): 1.0 | The level of expressed mRNA in the presence of chemical substance/The level of expressed mRNA in the absence of chemical substance (yeast gene YBR072W): 16.3 | The level of expressed mRNA in the presence of chemical substance/The level of expressed mRNA in the absence of chemical substance (yeast gene YBR126C): 1.3 | The level of expressed mRNA in the presence of chemical substance/The level of expressed mRNA in the absence of chemical substance (yeast gene YBR169C): 1.7 | The level of expressed mRNA in the presence of chemical substance/The level of expressed mRNA in the absence of chemical substance (yeast gene YCL035C): 1.5 | The level of expressed mRNA in the presence of chemical substance/The level of expressed mRNA in the absence of chemical substance (yeast gene YCR021C): 0.5 | The level of expressed mRNA in the presence of chemical substance/The level of expressed mRNA in the absence of chemical substance (yeast gene YCR060W): 1.7 | The level of expressed mRNA in the presence of chemical substance/The level of expressed mRNA in the absence of chemical substance (yeast gene YCR083W): 1.1 | The level of expressed mRNA in the presence of chemical substance/The level of expressed mRNA in the absence of chemical substance (yeast gene YDL022W): 1.2 | The level of expressed mRNA in the presence of chemical substance/The level of expressed mRNA in the absence of chemical substance (yeast gene YDL025C): 0.9 | The level of expressed mRNA in the presence of chemical substance/The level of expressed mRNA in the absence of chemical substance (yeast gene YDR033W): 1.0 | The level of expressed mRNA in the presence of chemical substance/The level of expressed mRNA in the absence of chemical substance (yeast gene YDR077W): 0.8 | The level of expressed mRNA in the presence of chemical substance/The level of expressed mRNA in the absence of chemical substance (yeast gene YDR098C): 1.3 | The level of expressed mRNA in the presence of chemical substance/The level of expressed mRNA in the absence of chemical substance (yeast gene YDR155C): 1.4 | The level of expressed mRNA in the presence of chemical substance/The level of expressed mRNA in the absence of chemical substance (yeast gene YDR258C): 1.8 | The level of expressed mRNA in the presence of chemical substance/The level of expressed mRNA in the absence of chemical substance (yeast gene YDR293C): 0.9 | The level of expressed mRNA in the presence of chemical substance/The level of expressed mRNA in the absence of chemical substance (yeast gene YDR436W): 0.9 | The level of expressed mRNA in the presence of chemical substance/The level of expressed mRNA in the absence of chemical substance (yeast gene YDR513W): 0.9 | The level of expressed mRNA in the presence of chemical substance/The level of expressed mRNA in the absence of chemical substance (yeast gene YDR519W): 1.7 | The level of expressed mRNA in the presence of chemical substance/The level of expressed mRNA in the absence of chemical substance (yeast gene YEL030W): 0.9 | The level of expressed mRNA in the presence of chemical substance/The level of expressed mRNA in the absence of chemical substance (yeast gene YEL039C): 0.6 | The level of expressed mRNA in the presence of chemical substance/The level of expressed mRNA in the absence of chemical substance (yeast gene YER042W): 1.1 | The level of expressed mRNA in the presence of chemical substance/The level of expressed mRNA in the absence of chemical substance (yeast gene YER057C): 1.5 | The level of expressed mRNA in the presence of chemical substance/The level of expressed mRNA in the absence of chemical substance (yeast gene YER103W): 1.9 | The level of expressed mRNA in the presence of chemical substance/The level of expressed mRNA in the absence of chemical substance (yeast gene YER125W): 0.7 | The level of expressed mRNA in the presence of chemical substance/The level of expressed mRNA in the absence of chemical substance (yeast gene YFL014W): 4.3 | The level of expressed mRNA in the presence of chemical substance/The level of expressed mRNA in the absence of chemical substance (yeast gene YFL016C): 1.0 | The level of expressed mRNA in the presence of chemical substance/The level of expressed mRNA in the absence of chemical substance (yeast gene YFL020C): 1.3 | The level of expressed mRNA in the presence of chemical substance/The level of expressed mRNA in the absence of chemical substance (yeast gene YFR052W): 1.8 | The level of expressed mRNA in the presence of chemical substance/The level of expressed mRNA in the absence of chemical substance (yeast gene YGL073W): 0.8 | The level of expressed mRNA in the presence of chemical substance/The level of expressed mRNA in the absence of chemical substance (yeast gene YGL115W): 0.9 | The level of expressed mRNA in the presence of chemical substance/The level of expressed mRNA in the absence of chemical substance (yeast gene YGL181W): 1.0 | The level of expressed mRNA in the presence of chemical substance/The level of expressed mRNA in the absence of chemical substance (yeast gene YGR088W): 1.1 | The level of expressed mRNA in the presence of chemical substance/The level of expressed mRNA in the absence of chemical substance (yeast gene YHL028W): 1.5 | The level of expressed mRNA in the presence of chemical substance/The level of expressed mRNA in the absence of chemical substance (yeast gene YHL046C): 1.1 | The level of expressed mRNA in the presence of chemical substance/The level of expressed mRNA in the absence of chemical substance (yeast gene YHR030C): 0.7 | The level of expressed mRNA in the presence of chemical substance/The level of expressed mRNA in the absence of chemical substance (yeast gene YHR057C): 1.1 | The level of expressed mRNA in the presence of chemical substance/The level of expressed mRNA in the absence of chemical substance (yeast gene YHR104W): 1.0 | The level of expressed mRNA in the presence of chemical substance/The level of expressed mRNA in the absence of chemical substance (yeast gene YIL011W): 0.6 | The level of expressed mRNA in the presence of chemical substance/The level of expressed mRNA in the absence of chemical substance (yeast gene YIL033C): 1.1 | The level of expressed mRNA in the presence of chemical substance/The level of expressed mRNA in the absence of chemical substance (yeast gene YIR037W): 1.3 | The level of expressed mRNA in the presence of chemical substance/The level of expressed mRNA in the absence of chemical substance (yeast gene YIR038C): 1.1 | The level of expressed mRNA in the presence of chemical substance/The level of expressed mRNA in the absence of chemical substance (yeast gene YJL128C): 1.0 | The level of expressed mRNA in the presence of chemical substance/The level of expressed mRNA in the absence of chemical substance (yeast gene YJL158C): 1.1 | The level of expressed mRNA in the presence of chemical substance/The level of expressed mRNA in the absence of chemical substance (yeast gene YJL159W): 1.0 | The level of expressed mRNA in the presence of chemical substance/The level of expressed mRNA in the absence of chemical substance (yeast gene YJL165C): 0.9 | The level of expressed mRNA in the presence of chemical substance/The level of expressed mRNA in the absence of chemical substance (yeast gene YJR045C): 1.0 | The level of expressed mRNA in the presence of chemical substance/The level of expressed mRNA in the absence of chemical substance (yeast gene YJR090C): 0.8 | The level of expressed mRNA in the presence of chemical substance/The level of expressed mRNA in the absence of chemical substance (yeast gene YKL161C): 0.9 | The level of expressed mRNA in the presence of chemical substance/The level of expressed mRNA in the absence of chemical substance (yeast gene YKL163W): 0.9 | The level of expressed mRNA in the presence of chemical substance/The level of expressed mRNA in the absence of chemical substance (yeast gene YKL164C): 0.8 | The level of expressed mRNA in the presence of chemical substance/The level of expressed mRNA in the absence of chemical substance (yeast gene YKL210W): 1.3 | The level of expressed mRNA in the presence of chemical substance/The level of expressed mRNA in the absence of chemical substance (yeast gene YKR053C): 0.7 | The level of expressed mRNA in the presence of chemical substance/The level of expressed mRNA in the absence of chemical substance (yeast gene YLL024C): 1.0 | The level of expressed mRNA in the presence of chemical substance/The level of expressed mRNA in the absence of chemical substance (yeast gene YLL026W): 1.9 | The level of expressed mRNA in the presence of chemical substance/The level of expressed mRNA in the absence of chemical substance (yeast gene YLL039C): 1.0 | The level of expressed mRNA in the presence of chemical substance/The level of expressed mRNA in the absence of chemical substance (yeast gene YLL060C): 1.1 | The level of expressed mRNA in the presence of chemical substance/The level of expressed mRNA in the absence of chemical substance (yeast gene YLR006C): 0.7 | The level of expressed mRNA in the presence of chemical substance/The level of expressed mRNA in the absence of chemical substance (yeast gene YLR109W): 1.6 | The level of expressed mRNA in the presence of chemical substance/The level of expressed mRNA in the absence of chemical substance (yeast gene YLR259C): 0.7 | The level of expressed mRNA in the presence of chemical substance/The level of expressed mRNA in the absence of chemical substance (yeast gene YML007W): 1.1 | The level of expressed mRNA in the presence of chemical substance/The level of expressed mRNA in the absence of chemical substance (yeast gene YML070W): 1.3 | The level of expressed mRNA in the presence of chemical substance/The level of expressed mRNA in the absence of chemical substance (yeast gene YMR021C): 0.8 | The level of expressed mRNA in the presence of chemical substance/The level of expressed mRNA in the absence of chemical substance (yeast gene YMR173W): 1.4 | The level of expressed mRNA in the presence of chemical substance/The level of expressed mRNA in the absence of chemical substance (yeast gene YMR186W): 1.0 | The level of expressed mRNA in the presence of chemical substance/The level of expressed mRNA in the absence of chemical substance (yeast gene YNL064C): 0.8 | The level of expressed mRNA in the presence of chemical substance/The level of expressed mRNA in the absence of chemical substance (yeast gene YNL160W): 1.4 | The level of expressed mRNA in the presence of chemical substance/The level of expressed mRNA in the absence of chemical substance (yeast gene YNL241C): 2.0 | The level of expressed mRNA in the presence of chemical substance/The level of expressed mRNA in the absence of chemical substance (yeast gene YNR076W): 0.7 | The level of expressed mRNA in the presence of chemical substance/The level of expressed mRNA in the absence of chemical substance (yeast gene YOL064C): 0.9 | The level of expressed mRNA in the presence of chemical substance/The level of expressed mRNA in the absence of chemical substance (yeast gene YOL161C): 1.3 | The level of expressed mRNA in the presence of chemical substance/The level of expressed mRNA in the absence of chemical substance (yeast gene YOR008C): 0.7 | The level of expressed mRNA in the presence of chemical substance/The level of expressed mRNA in the absence of chemical substance (yeast gene YOR009W): 0.4 | The level of expressed mRNA in the presence of chemical substance/The level of expressed mRNA in the absence of chemical substance (yeast gene YOR010C): 0.5 | The level of expressed mRNA in the presence of chemical substance/The level of expressed mRNA in the absence of chemical substance (yeast gene YOR027W): 1.3 | The level of expressed mRNA in the presence of chemical substance/The level of expressed mRNA in the absence of chemical substance (yeast gene YOR208W): 1.2 | The level of expressed mRNA in the presence of chemical substance/The level of expressed mRNA in the absence of chemical substance (yeast gene YPL059W): 0.8 | The level of expressed mRNA in the presence of chemical substance/The level of expressed mRNA in the absence of chemical substance (yeast gene YPL106C): 1.1 | The level of expressed mRNA in the presence of chemical substance/The level of expressed mRNA in the absence of chemical substance (yeast gene YPL140C): 0.8 | The level of expressed mRNA in the presence of chemical substance/The level of expressed mRNA in the absence of chemical substance (yeast gene YPL194W): 0.9 | The level of expressed mRNA in the presence of chemical substance/The level of expressed mRNA in the absence of chemical substance (yeast gene YPL223C): 0.9 | The level of expressed mRNA in the presence of chemical substance/The level of expressed mRNA in the absence of chemical substance (yeast gene YPL240C): 0.8 | The level of expressed mRNA in the presence of chemical substance/The level of expressed mRNA in the absence of chemical substance (yeast gene YPR005C): 0.6 | The level of expressed mRNA in the presence of chemical substance/The level of expressed mRNA in the absence of chemical substance (yeast gene YPR026W): 1.2
